# According to patent US20140113964A1, “METHOD OF PREVENTING AND TREATING ALLERGIC AIRWAY DISEASES VIA INTRANASAL GABEXATE MESILATE” (priority 2012, published 2014):
# Where a SMILES comes first, the peptide text is derived from it. [ ]: non-standard residue; d: D form. The star is where a group is joined. Sta = CC(C)C[C@H](N)[C@@H](O)CC(=O)O; Isovaleryl = CC(C)CC(=O)*
# Key:
# Beas2B cells [1] = assay: CraA-induced dissociation of Beas2B cells, bright field microscope; type: cell-based, Human; conditions: 36, 75, 150 or 300 μg/mL gabexate mesilate for 30 mins, then 5 μg/mL CraA; FIG. 6
# Experimental: With reference to FIG. 2 is a schematic view of Beas2B cells treated with various doses of CraA in accordance with an embodiment of the present invention, 3×10^5 Beas2B cells were seeded in a 6-well plate and treated with 0, 5, 10, 20, 30 and 40 μg/mL of CraA, respectively. Afterwards, the cells were observed by the bright field microscope.
# murine asthma model = conditions: intra-peritoneal injection; cited from earlier work
# IL-8 and MCP-1 proteins = assay: IL-8 and MCP-1 protein levels in Beas2B cells treated with CraA; type: cell-based, Human; conditions: pre-treatment 30 mins, then 5 μg/mL CraA, time courses; FIG. 8
# Experimental: With reference to FIGS. 6-8 for a schematic view of protection effects of gabexate mesilate (GM) on Beas2B cells treated with CraA, a schematic view of chemokines detected by RT-PCR in Beas2B cells treated with CraA and gabexate mesilate and a quantification result of IL-8 and MCP-1 proteins in Beas2B cells treated with CraA and gabexate mesilate in accordance with an embodiment of the present invention, 3×10^5 Beas2B cells were seeded in a 6-well plate and subsequently treated with gabexate mesilate for 30 mins. Afterwards, the cells were further treated with 5 μg/mL of CraA. Consequently, the cells were either observed by bright field microscope and analyzed the gene expression and the protein level of the cytokines, such as IL-8, MCP-1, GM-CSF and CCL20, as mentioned above.
# [2] = test system: IL-8, MCP-1, GM-CSF and CCL20 genes; assay: RT-PCR of chemokine genes (IL-8, MCP-1, GM-CSF, CCL20) in Beas2B cells treated with CraA; type: cell-based, Human; conditions: pre-treatment 30 mins, then 5 μg/mL CraA, increasing doses; FIG. 7
# Experimental: Referring to FIG. 4, the mRNA levels of various cytokines in response to treatment of CraA was measured by RT-PCR. To be brief, 3×10^5 Beas2B cells were seeded in a 6-well plate and treated with 5 μg/mL of CraA for 1, 2, 3, 4, 5, 16 and 24 hrs, respectively. After the treatment, the cells were harvested by TRIzol (Invitrogen), and RNA of the cells was extracted. The extracted RNA was reverse-transcribed into cDNA by SuperScript polymerase (Invitrogen) according to the manufacturer's instruction. Moreover, IL-8, MCP-1, GM-CSF and CCL20 genes were amplified by RT-PCR and analyzed by 2% agarose gel. The expression levels of the above mentioned genes were normalized with the expression of β-actin.
# Beas2B cells [3] = assay: cell viability of Beas2B cells, trypan blue staining and counting; type: cell-based, Human
# Experimental: With reference to FIG. 5 for a schematic view of cell viability of Beas2B cells treated with gabexate mesilate (GM) in accordance with an embodiment of the present invention, 3×10^5 Beas2B cells were seeded in a 3.5-cm dish with subsequently starvation for 16 hrs. After treating the cells with gabexate mesilate of various concentrations for 24 hrs, the cells were stained with trypan blue and counted the numbers of total cells, dead cells and survived cells so as to convert the numbers into a viability of the cells.
# Referring to FIG. 5, the IC50 of the cells to gabexate mesilate is 600 μg/mL, that is, the cell viability with respect to gabexate mesilate at concentration of 600 μg/mL is 50%. […] Accordingly, the pharmaceutical effective amount of the composition comprising gabexate mesilate may be between 1-600 μg/mL, preferably between 10-300 μg/mL.
# [4] = test system: protease activity of CraA; assay: azocasein assay of the protease activity of CraA with protease inhibitors; type: biochemical, American cockroach; conditions: azocasein substrate, 37° C., 30 mins, absorbance at 440 nm; FIG. 1
# Experimental: In brief, azocasein was used as a substrate to measure the protease activity of CraA. Twenty μL of CraA was added into 80 μL azocasein solution (0.5% (w/v), lysed in 100 mM phosphate buffer) and incubated in 37° C. water bath for 30 mins. Afterwards, 20 μL of 10% trichloroacetic acid was added to stop the reaction. Further, the mixture was centrifuged with 6000 g for 10 mins. Consequently, 50 μL of supernatant was mixed with 50 μL of NaOH (0.2N), and the absorbance was measure at 440 nm. Moreover, various protease inhibitors were applied to inhibit the protease activity of CraA, for instance, PMSF (serine protease), aprotinin (serine protease), pepstatin (aspartic acid protease), E-64 (cysteine protease) and EDTA (metalloprotease), so as to confirm the serine protease activity of CraA.
# With reference to FIG. 1 for a schematic view of inhibition of protease activity of CraA in accordance with an embodiment of the present invention, the protease activity inhibition was shown after treatment of different kinds of […].
compound,measurement,setting,value
CCOC(=O)c1ccc(OC(=O)CCCCCN=C(N)N)cc1.CS(=O)(=O)O [gabexate mesilate],dissociation of Beas2B cells treated with CraA,Beas2B cells [1],reverse the dissociation of the cells
same,allergen-induced airway inflammation and eosinophilia,murine asthma model,attenuates allergen-induced airway inflammation and eosinophilia
same,protein levels of IL-8 and MCP-1,IL-8 and MCP-1 proteins,significantly decreased
same,"expression of IL-8, MCP-1, GM-CSF and CCL20 genes induced by CraA",[2],obviously decreases the gene expression induced by CraA
same,survived cells,"Beas2B cells [3]; 1200 μg/mL, 24 hrs",no survived cells
same,IC50 of the cells to gabexate mesilate (cell viability),"Beas2B cells [3]; Beas2B cells, 24 hrs treatment, trypan blue, FIG. 5",600 µg/mL
O=C(O)CN(CCN(CC(=O)O)CC(=O)O)CC(=O)O [EDTA],inhibition of the protease activity of CraA,[4],not significantly inhibited
O=S(=O)(F)Cc1ccccc1 [PMSF],inhibition of the protease activity of CraA,[4],obviously inhibited
CC(C)C[C@H](NC(=O)[C@H]1O[C@@H]1C(=O)O)C(=O)NCCCCN=C(N)N [E-64],inhibition of the protease activity of CraA,[4],not significantly inhibited
CC(C)CC(=O)N[C@H](C(=O)N[C@H](C(=O)N[C@@H](CC(C)C)[C@@H](O)CC(=O)N[C@@H](C)C(=O)N[C@@H](CC(C)C)[C@@H](O)CC(=O)O)C(C)C)C(C)C [pepstatin] (Isovaleryl-VV[Sta]A[Sta]-OH),inhibition of the protease activity of CraA,[4],not significantly inhibited
aprotinin,inhibition of the protease activity of CraA,[4],obviously inhibited
